Article PMC12650265 (The Journal of Experimental Medicine, 2025)
pIC50: −log10 of the molar value. “Also recorded” adds a separate entry of the source.

Key:
hMR1 protein = target: T1, hMR1 protein (Homo sapiens, UniProt Q95460); experiment: fluorescence polarization–based cell-free assay, competition with JYM20 for MR1 binding; conditions: 50% inhibition of 10 nM JYM20 binding to 100 nM empty hMR1, 37°C; three independent experiments in triplicate
T1 construct: plasmids encoding for the extracellular domains of MR1, β2m, and the AF-7 TCRα and TCRβ chains; made in house; host or cells: Escherichia coli BL21(DE3)

[1] = system: T2, folded MR1 in C1R.MR1 cells; experiment: intracellular total folded MR1 by flow cytometry (8F2.F9); format: cell-based, human; conditions: 16 h, 100 µM
T2 construct: expressed in transfected cells; host or cells: C1R B lymphoblastoid cells transduced with MR1*01

[2] = system: T3, human MR1–β2-microglobulin (β2m) complex; experiment: refolding of recombinant MR1-β2m with ligand; format: binding; conditions: ligand added to refolding buffer; gel filtration and SDS-PAGE
T3 construct: plasmids encoding for the extracellular domains of MR1, β2m, and the AF-7 TCRα and TCRβ chains; made in house

soluble WT MR1 = experiment: fluorescence-based thermal shift (thermostability) assay of MR1–ligand complexes; format: binding, human; conditions: MR1 refolded with the ligand; SYPRO Orange, 28 to 95°C; three independent experiments; listed as MR1-Lumiflavin
[3] = system: T4, surface MR1*01 on THP-1.MR1 cells; experiment: quantification of cell surface MR1 by flow cytometry, THP-1.MR1 cells; format: cell-based, human; conditions: 3 h
T4 construct: expressed in transfected cells; host or cells: THP-1 monocytic cells transduced with MR1
Procedure: Next, we investigated whether these RF catabolites can impact MR1 cell surface expression in both MR1-transduced B cell lymphoblastoid (C1R.MR1) and monocytic (THP-1.MR1) cell lines (Fig. 2). Here, the cells were incubated with 1–200 µM of RF or the RF catabolites, and the cell surface levels of MR1 were quantified by flow cytometry ([Awad et al., 2020a]; [Keller et al., 2017]). […] The MR1 downregulation seen in C1R.MR1 cells was specific to MR1 as the level of HLA-A*02:01 was not affected after incubating C1R-A2 with the ligands (Fig. S1 E). […] This MR1 downregulation varied between cell types, with a higher extent observed in THP-1.MR1 than C1R.MR1, and was seen after staining with two different conformational anti-MR1 antibodies (clones 8F2F9 and 26.5; Fig. 2 G). Beyond APCs overexpressing MR1, we also measured MR1 on the surface of cells expressing wild-type levels of MR1.
(§1) The level of MR1 expressed on the cell surface was measured after the exposure to the investigated ligands as previously described ([Awad et al., 2020a]; [Wang et al., 2022a]). […] The PE fluorescence intensity reflects the surface MR1 level. The data were acquired with LSRFortessa X-20 (BD Biosciences) and Diva software (BD Biosciences) and analyzed using FlowJo software (BD Biosciences).

[4] = system: T5, MR1^K43A on C1R.MR1^K43A cells; experiment: cell surface MR1^K43A by flow cytometry; format: cell-based, human
T5 construct: expressed in transfected cells; host or cells: C1R cells overexpressing MR1^K43A
Source text: (§2) We then tested the effect of the RF catabolites on the expression of two mutant versions of MR1 termed MR1^R9H ([Howson et al., 2020]) and MR1^K43A ([Reantragoon et al., 2013]). First, we tested the MR1^R9H mutant ([Howson et al., 2020]), which represents a rare, natural human polymorph. […] We used C1R.MR1^R9H cells, which are produced by stable transduction of wild-type C1R cells, which express low levels of wild-type MR1, with a vector expressing the MR1^R9H mutant ([Howson et al., 2020]). […] When C1R. […] Next, we sought to understand how the previously characterized K43A mutation affects ligand binding.
The level of MR1 expressed on the cell surface was measured after the exposure to the investigated ligands as previously described ([Awad et al., 2020a]; [Wang et al., 2022a]). C1R Ag-presenting B lymphocytes overexpressing MR1*01 (C1R.MR1), MR1^K43A mutant (C1R.MR1^K43A), MR1^R9H mutant (C1R.MR1^R9H), or HLA-A*02:01 (C1R-A2), in addition to the monocytic THP-1-MR1 cells, were used in this study. 2 × 10^5 cells were incubated with RF catabolites for 3 or 16 h at 37°C and 5% CO2 in 200 μl folate-free RPMI 1640 medium from Gibco (Cat. No. 11875-093) fortified with 10% fetal bovine serum, sodium pyruvate (1 mmol/L), HEPES buffer (15 mmol/L), pH 7.2–7.5, 2% penicillin (100 U/ml), streptomycin ([…]), GlutaMAX (2 mmol/L), nonessential amino acids (0.1 mmol/L) (all from Thermo Fisher Scientific, Life Technologies), and 2-mercaptoethanol ([…], Sigma-Aldrich) (RF-10). After incubation, the cells were first stained with Zombie Aqua Fixable Viability Kit from BioLegend (Cat. No. 423102) and then incubated with biotinylated 8F2F9 αMR1 antibody for 30 min on ice. The unbound antibody was then washed off with 2% fetal bovine serum/PBS (called 2% FACS hereafter) buffer. The cells were finally incubated with PE-conjugated streptavidin (30 μg/ml; BioLegend) and then washed with 2% FACS buffer. The PE fluorescence intensity reflects the surface MR1 level. The data were acquired with LSRFortessa X-20 (BD Biosciences) and Diva software (BD Biosciences) and analyzed using FlowJo software (BD Biosciences).

[5] = system: SKW-3 cells expressing MAIT TCR AF-7; experiment: SKW-3 reporter T cell activation (CD69), coculture with C1R.MR1; format: cell-based; conditions: for reactivity to 5-OP-RU (CD69): SKW-3-AF-7, in the presence of 1 nM 5-OP-RU; for reactivity to RL-7-Me (CD69): SKW-3-AF-7, in the presence of 100 nM RL-7-Me
Procedure: (§3) Given the intracellular MR1 retention induced by the RF catabolites, we anticipated that these ligands could influence the activity of MR1-reactive T cells. First, we utilized a system whereby reporter SKW-3 T cell lines were cocultured with C1R.MR1 APCs and activation was determined by CD69 expression. […] In contrast, SKW-3-MBV28 cells were inhibited by alloxazine but activated by lumichrome (Fig. S3, D–F). Two MR1-restricted TRAV1-2^−ve SKW-3 T cell lines were also tested.
(§4) C1R.MR1 cells (1 × 10^5) were initially stained with CTV (Thermo Fisher Scientific) for 15 min and then incubated with RF catabolites for 20 h. […] Cells were subsequently stained with PE-Cy7-conjugated anti-CD69 (1:100; BD Biosciences) and PE-labeled anti-MR1 (1:100, clone 26.5; BD Biosciences), before analysis on a LSRFortessa (BD Biosciences) flow cytometer. Activation of the SKW-3 cells was reflected by the cell surface CD69 expression.

[6] = system: T6, MR1 on PBMC-derived B lymphocytes; experiment: MR1 surface expression on primary B cells; format: cell-based; conditions: primary human B cells, 16 h, highest doses, with or without 5-OP-RU
T6 construct: we also measured MR1 on the surface of cells expressing wild-type levels of MR1; endogenous in cells; host or cells: PBMC-derived B lymphocytes from healthy human donors

MR1 on C1R.MR1 cells = system: T7, MR1 on C1R.MR1 cells; experiment: competition with Ac-6-FP or 5-OP-RU for MR1 upregulation, C1R.MR1 cells; format: cell-based, human; conditions: 1–200 µM overnight
T7 construct: expressed in transfected cells; host or cells: C1R B lymphoblastoid cells transduced with MR1*01

MR1 in C1R.MR1 cells = system: T8, MR1 in C1R.MR1 cells; experiment: Endo H treatment and western blot of intracellular MR1; format: cell-based, human; conditions: 16 h, Ac-6-FP 10 μM, RF and catabolites 100 μM
T8 construct: expressed in transfected cells; host or cells: C1R B lymphoblastoid cells transduced with MR1*01
Procedure: The downregulation of MR1 on the cell surface by the RF catabolites could be due to the depletion of the intracellular ER-resident MR1 pool, or due to the retention of MR1 in the ER, as shown for the DB28 ligand ([Salio et al., 2020]). To investigate this, C1R.MR1 cells were treated for 16 h with 100 µM RF or RF catabolites, conditions that induce MR1 downregulation (Fig. 3 A). Cells were lysed, and treated with endoglycosidase (Endo) H, to distinguish molecules that remain within the ER from those that have trafficked to the cell surface ([McWilliam et al., 2016]), and then, MR1 levels were assessed by immunoblotting (Fig. 3 A).
C1R.MR1 cells were cultured with different RF catabolites for 16 h, at 37°C. Samples were then treated with or without Endo H for 1-h incubation at 37°C. Cells were lysed, and lysate protein concentration was quantified by BCA assay. Equal amounts of samples (40 µg total protein) were separated on SDS-PAGE gels before being transferred onto nitrocellulose membranes and incubated with primary (anti-MR1; clone 8G3) ([McWilliam et al., 2020]) then corresponding secondary antibody (IRDye 800CW anti-mouse IgG, Cat. No. 925-32210; LICORbio). The protein bands were visualized by the Li-Cor system.

[7] = system: T9, surface MR1*01 on C1R.MR1 cells; experiment: quantification of cell surface MR1 by flow cytometry, C1R.MR1 cells; format: cell-based, human; conditions: C1R.MR1 cells, 1–200 µM, 8F2F9 antibody
T9 construct: expressed in transfected cells; host or cells: C1R B lymphoblastoid cells transduced with MR1*01

MR1 on THP-1.MR1 cells = system: T10, MR1 on THP-1.MR1 cells; experiment: competition with Ac-6-FP for MR1 upregulation, THP-1.MR1 cells; format: cell-based, human; conditions: 1–200 µM overnight, then 10 µM Ac-6-FP for 3 h
T10 construct: expressed in transfected cells; host or cells: THP-1 monocytic cells transduced with MR1

[8] = system: MAIT and TRAV1-2^−ve cells from PBMCs; experiment: TCR-independent or bead stimulation of PBMCs (PMA and ionomycin, αCD3/αCD28 beads); format: cell-based, human; conditions: PBMCs preincubated 16 h, then PMA and ionomycin; MAIT or non-MAIT TRAV1-2^−ve cells
[9] = system: SKW-3 cells expressing MAIT TCR MBV28; experiment: SKW-3 reporter T cell activation (CD69), coculture with C1R.MR1; format: cell-based; conditions: SKW-3 MBV28 cocultured with C1R.MR1, no agonist
Procedure: as §3, §4

[10] = system: T11, MR1^R9H on C1R.MR1^R9H cells; experiment: cell surface MR1^R9H by flow cytometry; format: cell-based, human
T11 construct: expressed in transfected cells; host or cells: C1R cells stably transduced with MR1^R9H
Source text: as §2
as §1, with “2022a]). C1R Ag-presenting B lymphocytes overexpressing MR1*01 (C1R.MR1), MR1^K43A mutant (C1R.MR1^K43A), MR1^R9H mutant (C1R.MR1^R9H), or HLA-A*02:01 (C1R-A2), in addition to the monocytic THP-1-MR1 cells, were used in this study.” for “2022a]).”

pIC50 (hMR1 protein) | SMILES | total level of folded MR1 (intracellular staining with 8F2.F9) [1] | folding of the MR1-β2m cocomplex in solution [2] | Tm50 (half-maximum melting temperature), Mean ± SD (soluble WT MR1) | MR1 cell surface expression [3] | MR1^K43A at the cell surface ([4]; 3 h) | reactivity to 5-OP-RU (CD69) [5] | reactivity to RL-7-Me (CD69) [5] | MR1 surface expression [6] | effect on Ac-6-FP–induced cell surface upregulation of MR1 (MR1 on C1R.MR1 cells; then 10 µM Ac-6-FP for 3 h) | effect on 5-OP-RU–induced cell surface upregulation of MR1 (MR1 on C1R.MR1 cells; then 5-OP-RU for 3 h) | Endo H–resistant MR1 (MR1 in C1R.MR1 cells) | MR1 cell surface expression ([7]; 3 h) | MR1 cell surface expression ([7]; 16 h) | MR1^K43A at the cell surface ([4]; 16 h) | effect on Ac-6-FP–induced cell surface upregulation of MR1 (MR1 on THP-1.MR1 cells) | block of CD69 upregulation and TNF production [8] | activation (CD69 expression), ligand alone ([5]; SKW-3 AF-7 cocultured with C1R.MR1, no agonist) | activation (CD69 expression), ligand alone [9] | MR1^R9H surface level [10]
4.27 | Cc1cc2nc3c(=O)[nH]c(=O)nc-3n(CC=O)c2cc1C [FMF, 10-formylmethylflavin] | increased the total level of folded MR1 | facilitated the correct folding of the MR1-β2m cocomplex | – | – | – | – | – | – | – | – | – | – | – | – | – | – | – | – | –
3.74 | Cc1cc2nc3c(=O)[nH]c(=O)nc-3n(C[C@H](O)[C@H](O)[C@H](O)CO)c2cc1C [RF, riboflavin] | – | did not sponsor refolding of MR1 | – | – | – | not altered | activation was enhanced | – | did not modulate | did not modulate | Neither RF nor its catabolites induced any Endo H–resistant MR1 | did not alter MR1 expression from the baseline | modestly upregulated MR1; also recorded: modest increase | MR1 upregulation continues | did not modulate | neither RF nor RF catabolites could block | not activated | not activated | did not deviate from the background level

SMILES | pIC50 (hMR1 protein) | total level of folded MR1 (intracellular staining with 8F2.F9) [1] | folding of the MR1-β2m cocomplex in solution [2] | Tm50 (half-maximum melting temperature), Mean ± SD (soluble WT MR1) | MR1 cell surface expression [3] | MR1^K43A at the cell surface ([4]; 3 h) | reactivity to 5-OP-RU (CD69) [5] | reactivity to RL-7-Me (CD69) [5] | MR1 surface expression [6] | effect on Ac-6-FP–induced cell surface upregulation of MR1 (MR1 on C1R.MR1 cells; then 10 µM Ac-6-FP for 3 h) | effect on 5-OP-RU–induced cell surface upregulation of MR1 (MR1 on C1R.MR1 cells; then 5-OP-RU for 3 h) | Endo H–resistant MR1 (MR1 in C1R.MR1 cells) | MR1 cell surface expression ([7]; 3 h) | MR1 cell surface expression ([7]; 16 h) | MR1^K43A at the cell surface ([4]; 16 h) | effect on Ac-6-FP–induced cell surface upregulation of MR1 (MR1 on THP-1.MR1 cells) | block of CD69 upregulation and TNF production [8] | activation (CD69 expression), ligand alone ([5]; SKW-3 AF-7 cocultured with C1R.MR1, no agonist) | activation (CD69 expression), ligand alone [9] | MR1^R9H surface level [10]
Cc1cc2nc3c(=O)[nH]c(=O)nc-3n(C)c2cc1C [Lumiflavin, lumiflavin] | 4.64 | – | facilitated the correct folding of the MR1-β2m cocomplex | 52.02 ± 0.58 °C | downregulated MR1 after 3 h | increased MR1^K43A at the cell surface | enhanced activation | activation was enhanced | reduced MR1 surface expression | – | – | – | – | – | – | – | – | – | – | –
